Reference: US20250369863A1, “METHOD FOR DETERMINING A STATUS OF A CO-CULTURE” (Universiteit Antwerpen, priority 2022, published 2025)

Test system: co-culture of patient-derived pancreatic tumor organoids (TCO) and cancer associated fibroblast (SCT)
Assay: co-culture of patient-derived pancreatic tumor organoids and cancer associated fibroblasts, stroma parameters from fluorescent images
Assay type: cell-based
Details: for stromal density of the micro-tumor: FIG. 10, static endpoint, compared to the control; for stromal density of the micro-tumor / stroma growth rate (normalized stromal growth rate) / contractility: Nintedanib 0.5 μM; for stromal density of the micro-tumor / stroma growth rate (normalized stromal growth rate): TGF-B 5 ng/ml; for stromal density of the micro-tumor / contractility: FGF2 10 ng/mL; for stroma growth rate (normalized stromal growth rate): FIG. 5, FGF2 10 ng/ml; for stroma size (area): FIG. 6; for stroma size (area) / stromal size ratio: dynamic (over time) kinetic quantification; for stromal size ratio: FIG. 9; for contractility: FIGS. 7 and 8
Protocol: A co-culture was prepared of patient-derived pancreatic tumor organoids (TCO) and cancer associated fibroblast (SCT), wherein the TCO and the SCT were fluorescently labelled with the first and second fluorescent label respectively. First and second fluorescent images were recorded and the status of the sample was determined with and without contacting the sample with Nintedanib, TGFB or FGF2. Nintedanib is a known anti-fibrotic drug that inhibits fibroblast proliferation and motility. TGFB and FGF2 are growth factors that can stimulate fibroblast proliferation.

With TGFB the “stromal density of the micro-tumor” value was “only had marginal effects”.
With `COC(=O)c1ccc2c(c1)NC(=O)/C2=C(\Nc1ccc(N(C)C(=O)CN2CCN(C)CC2)cc1)c1ccccc1` [nintedanib, Nintedanib] the “micro-tumor formation driven by activated fibroblasts” value was “inhibited”, the “stroma growth rate (normalized stromal growth rate)” value was “inhibited” and the “stroma size (area)” value was “inhibited”. For the same compound, the stromal size ratio was “reduced”, the stromal size ratio (listed as Nintedanib) was “inhibitory effect” and the “stromal density of the micro-tumor” value was “reduced”. For the same compound, the contractility was “lack of contractility” and the motility (shown by contractility, stromal size ratio and stromal density (FIGS. 7 to 10)) was “inhibited”.
“FGF2: growth factor that can stimulate fibroblast proliferation” was tested, and the “stroma growth rate (normalized stromal growth rate)” value was “stimulated the strongest”, the “stroma size (area)” value was “stimulated the strongest” and the “stromal density of the micro-tumor” value was “only had marginal effects”. For the same compound, the contractility was “have been contracted together”.
